Experimental findings from patent US12653860B2, “Compositions and methods for editing beta-globin for treatment of hemaglobinopathies” (Vertex Pharmaceuticals Incorporated, priority 2019, dated 2026) are described below.

Entries after “also recorded” stand apart in the source; their conditions may differ.

In test [1] the test system is cKit mice. The test can be described thus: Engraftment (percent chimerism) of edited human LT-HSPCs in irradiated mice. It counts as in vivo. As to conditions: for chimerism in bone marrow: FIG. 24B. Here is the method:
The cells were administered by intravenous injection to cKit mice at 2 days following electroporation. Recipient mice were treated with sublethal irradiation (100 cGy) at 1 day prior to administration of LT-HSPCs to eliminate hematopoietic cells in the bone marrow and enable engraftment of the donor cells. Animals were evaluated for presence of human hematopoietic cells in peripheral blood at 8 and 16 weeks following LT-HSPC administration. The bone marrow was also evaluated for engraftment and maintenance of the HBB gene-edit at 16 weeks following LT-HSPC administration.
(§1) Presence of human hematopoietic cells was measured by flow cytometry in mouse blood or bone marrow samples. Cells were gated on singlet, live cells. Mouse and human CD45-expressing hematopoietic cells were distinguished by antibodies targeting mouse or human CD45. Engraftment was measured as percent chimerism which was defined as the quantity of human CD45 positive cells divided by the total number of CD45 positive cells (e.g., human and mouse CD45 expressing cells combined). The lineage of human CD45 positive cells was determined using markers for CD19 (e.g., B cells), CD3 (e.g., T cells), CD33 (e.g., myeloid cells), and CD34 (hematopoietic stem/progenitor cells (HSPCs)).
Human LT-HSPCs were administered to mice following electroporation with Cas9/gRNA and AAV encoding a sickle cell mutation (E7V) as shown in FIG. 21. LT-HSPCs were mobilized from healthy donors using plerixafor. LT-HSPCs were gene-edited following 2 days in culture. […] 1×10^6 cells were edited with 20 g Cas9 and 20 g gRNA.
A dose of 0.5×10^6 cells was administered by intravenous injection to cKit mice at 2 days following electroporation. Recipient mice were treated with sublethal irradiation (100 cGy) at 1 day prior to administration of LT-HSPCs to eliminate hematopoietic cells in the bone marrow and enable engraftment of the donor cells. Animals were evaluated for presence of human hematopoietic cells in peripheral blood at 8 and 16 weeks following LT-HSPC administration. The bone marrow was also evaluated for engraftment and maintenance of the HBB gene-edit at 16 weeks following LT-HSPC administration.

The next test relates to HBB locus. The test can be described thus: HDR (E7V) editing in mouse bone marrow 16 weeks post-administration, NGS. As to conditions: for levels of gene-editing in the HBB locus in bone marrow: AAV.304, FIG. 26B. It counts as in vivo, mice. As to the method: Maintenance of gene-editing was evaluated in mouse bone marrow collected at 16 weeks post-administration of LT-HSPCs. Incorporation of a sickle mutation (E7V) in the HBB locus was evaluated in DNA isolated from mouse bone marrow samples using the next generation sequencing assay described in Example 4. Shown in FIG. 19 is a comparison of HDR efficiency for LT-HSPCs edited either with or without i53. LT-HSPCs were electroporated with Cas9/gRNA and treated with AAV. […] LT-HSPCs edited in the presence of i53 had 1.8-fold higher HDR frequency in the bone marrow compared to cells edited with AAV+RNP alone.
Maintenance of gene-editing was evaluated in mouse bone marrow collected at 16 weeks post-administration of LT-HSPCs. Incorporation of a sickle mutation (E7V) in the HBB locus was evaluated in DNA isolated from mouse bone marrow samples using the next generation sequencing assay described in Example 4. […] LT-HSPCs were electroporated with Cas9/gRNA and treated with AAV prior to electroporation or following electroporation. Incorporation of the gene-edit in bone marrow samples was similar for LT-HSPCs edited with RNP and AAV given either pre-EP or post-EP. Additionally, incorporation of the gene edit in the HBB locus by HDR was compared for LT-HSPCs edited in the presence of i53 or Nu7441 (FIG. 26B).

Test [2] concerns HBB locus in CD34-expressing LT-HSPCs. The test can be described thus: HDR insertion of AAV GFP donor at HBB locus (GFP fluorescence). It counts as cell-based, human. As to conditions: for HDR efficiency: 0.75 g mRNA encoding i53, 5 μM Nu7441, DM control mRNA, FIG. 6C. As to the method:
Frozen CD34-expressing LT-HSPCs derived from plerixafor (i.e., Mozibil®)+GCSF-dual mobilized peripheral blood obtained from healthy human donors were purchased from a commercial vendor. LT-HSPCs were maintained in culture media comprised of the reagents shown in Table 4 and were incubated at 37° C., 5% carbon dioxide, 4% oxygen. […] 2×10^5 cells were edited with 3 g Cas9 and 3 g gRNA. The target gene sequence (including target sequence with PAM), R02 spacer sequence, and R02 sgRNA sequence are identified in Table 3.
The cells were transfected with a dsDNA homology donor encoding GFP under a SFFV promoter (SEQ ID NO: 60) that was delivered by AAV (SEQ ID NO: 56). […] The HDR efficiency was determined by measuring the level of GFP fluorescence in the cells following electroporation. To determine the effect of 53BP1 inhibition on HDR efficiency, the 53BP1 inhibitor i53 was introduced as an mRNA-encoded protein to the cells during electroporation with Cas9/gRNA RNP and AAV DNA that serves as a donor for homology directed repair.
The effect of 53BP1 inhibition on HDR efficiency was compared to other mRNA-encoded proteins that inhibit the NHEJ pathway. These included the proteins CYREN1 and CYREN2 that inhibit Ku70/80, a heterodimer that binds DNA blunt ends to prevent processing of 3′ single-stranded DNA tails necessary for HDR repair. Cells were electroporated with RNP, an AAV-GFP homology donor and mRNA encoding either i53 (mRNA ORF shown in SEQ ID NO: 69), CYREN1, or CYREN2.
The effect of treatment with i53 and Nu7441 was compared for improving efficiency of HDR repair of the HBB locus. Cells were treated with different doses of Nu7441 or with mRNA encoding i53 (ORF shown by SEQ ID NO: 69).

The subject of test [3] is cKit mice. As to the kind of experiment: Lineage analysis of engrafted human CD45-expressing cells in mouse bone marrow. It counts as in vivo. As to the method: as §1
Shown in FIGS. 18A-18B is lineage analysis of engrafted CD45-expressing human cells in mouse bone marrow samples collected at 16 weeks post administration of LT-HSPCs. The lineage of CD45-expressing human leukocytes was evaluated for unedited LT-HSPCs administered at a dose of 0.01×10^6, 0.05×10^6, 0.1×10^6, or 0.25×10^6 cells (FIG. 18A). The lineage of CD45-expressing human leukocytes was also evaluated for LT-HSPCs edited with AAV+RNP either in the presence or absence of i53 (FIG. 18B).
Shown in FIG. 25 is lineage analysis of engrafted CD45-expressing human cells in mouse bone marrow samples collected at 16 weeks post administration of LT-HSPCs. […]

For the compound “i53: polypeptide inhibitor of 53BP1 (SEQ ID NO: 70), delivered as mRNA (ORF SEQ ID NO: 69)”, the “percent chimerism in bone marrow” value in the test with cKit mice [1] (16 weeks, 0.25×10^6 LT-HSPCs, AAV.307, FIG. 16) is listed as “no further decrease in chimerism”. Besides, the “chimerism in bone marrow” value in the test on cKit mice [1] (16 weeks, AAV.304) is listed as “comparable to RNP+AAV alone”. In the test with cKit mice [1] (blood 8 and 16 weeks, 0.5×10^6 cells, AAV.304, FIG. 23B), the “levels of chimerism in blood” value is “comparable to RNP+AAV alone”. Further, in the test with HBB locus, the “levels of gene-editing in the HBB locus in bone marrow” value is reported as “substantially higher than AAV+RNP alone”. Also, the “HDR frequency in bone marrow, fold higher than AAV+RNP alone” value with HBB locus (AAV.307, FIG. 19) was 1.8 fold. In the test on HBB locus (AAV.307, i53, FIG. 19), the “incorporation of the gene edit by HDR in bone marrow” value is listed as 65%. Moreover, the HDR efficiency entry in test [2] was “comparable increase in HDR efficiency”. Also, the “HDR efficiency vs RNP+AAV-only” value in test [2] (i53 mRNA 0.5, 1, 2 g (FIG. 6A) or 0.3 g, 1 g (FIG. 6B), CYREN1 or CYREN2 mRNA, any dose of XL413 (data not shown)) is recorded as “improved HDR efficiency; also recorded: increased HDR efficiency”. The “HDR efficiency, fold increase over RNP+AAV-only” value in test [2] (mRNA encoding i53, AAV GFP donor 5,000 MOI, FIG. 6A) is “approximately 1.3 fold”. Besides, the “lineage distribution of engrafted cells” value in the test with cKit mice [3] (bone marrow 16 weeks, edited vs un-edited LT-HSPCs, FIG. 18B) is on record as “no gross changes in lineage distribution”.
In the case of `O=c1cc(N2CCOCC2)oc2c(-c3cccc4c3sc3ccccc34)cccc12` [Nu7441], the “chimerism in blood, fold increase over RNP+AAV alone” value with cKit mice [1] (8 and 16 weeks, 5 μM Nu7441, FIG. 23B) stood at 2.5 fold. The “chimerism in bone marrow” value in the test on cKit mice [1] (16 weeks, AAV.304) is given as “higher than RNP+AAV alone”. Further, in the test on cKit mice [1] (both 8 and 16 weeks, 5 μM Nu7441, AAV.304, FIG. 23B), the chimerism in blood result was “approximately 25%”. In addition, in the test with HBB locus, the “levels of gene-editing in the HBB locus in bone marrow” value is “comparable to AAV+RNP alone”. In addition, the HDR efficiency entry in test [2] is reported as “comparable increase in HDR efficiency”. In the test on cKit mice [3] (16 weeks, compared to treatment with i53, FIG. 25), the “lineage of human leukocytes in bone marrow” value is “greater proportion of CD34-expressing cells and myeloid cells”.
